Assay results as given in US20150313228A1, “SYNERGISTIC HERBICIDAL COMBINATIONS AND METHODS OF USE” (priority 2012, published 2015).

Key:
Palmer amaranth = assay: Post-emergence application in Palmer amaranth under greenhouse conditions (Example 7); type: in vivo; details: 24 days after application
Description: (§1) The following testing protocol was employed to evaluate the post-emergence application of herbicides and herbicide combinations as described in the following examples unless otherwise specified. The weed species to be treated were planted in 3.5 inch pots containing redi-earth potting mix and grown under greenhouse conditions. When the weed species reached a height of about four inches, herbicide was applied at the specified application rate using a track sprayer with a flat even nozzle type, 9501E nozzle size, and spray pressure of 165 kPa. After the application of the herbicide(s), the pots were only sub-irrigated as needed. Throughout the test period, temperature was maintained from about 20° C. to about 30° C. and relative humidity was maintained at about 30%. The plants were rated visually and percentage of weed control was determined for each treatment at 15 to 21 days after herbicide application.
Post-emergence application of several herbicides and herbicide combinations was evaluated in Palmer amaranth under greenhouse conditions. The plants were rated visually and percentage of weed control was determined at 24 days after herbicide application. The herbicides and herbicide combinations evaluated are listed in Table 7-A below together with the corresponding percent control data. The data represent an average value (n=6).
The results of the analysis are reported below in Table 7-B (glyphosate+dicamba), Table 7-C(glyphosate+metribuzin), and Table 7-D (dicamba+metribuzin).

velvetleaf = assay: Post-emergence application in velvetleaf under greenhouse conditions (Example 8); type: in vivo
Description: as §1
Post-emergence application of several herbicides and herbicide combinations was evaluated in velvetleaf under greenhouse conditions. The plants were rated visually and percentage of weed control was determined at 24 days after herbicide application. The herbicides and herbicide combinations evaluated are listed in Table 8-A below together with the corresponding percent control data. The data represent an average value (n=6).
The results of the analysis are reported below in Table 8-B (glyphosate+dicamba), Table 8-C(glyphosate+metribuzin), and Table 8-D (dicamba+metribuzin).

`O=C(O)CNCP(=O)(O)O` [Glyphosate] was tested. Which “PERCENT CONTROL” value (Palmer amaranth; 560 g/ha) did it give?
The value was 20.0%.

And the “PERCENT CONTROL” value (Palmer amaranth; 1120 g/ha)?
The value was 50.0%.

What about the “PERCENT CONTROL (ACTUAL)” value (velvetleaf; 560 g/ha, 24 days after application) of the same compound?
Its value is 81.0%.

And the “PERCENT CONTROL (ACTUAL)” value (velvetleaf; 1120 g/ha, 24 days after application)?
The value was 100.0%.

What about the “PERCENT CONTROL (ACTUAL)” value (velvetleaf; Table 8-C, velvetleaf, 24 days, dose 560 g/ha) of the same compound?
Its value is 81.0%.

And the “PERCENT CONTROL (ACTUAL)” value (velvetleaf; Table 8-C, velvetleaf, 24 days, dose 1120 g/ha)?
The value was 100.0%.
